The subject of data set [1] is E. coli TG1. The data set is classed as cell-based, Escherichia coli. As to conditions: reference strain; CLSI microdilution, 5 × 10^4 CFU/well, 35° 18–20 h, median of triplicate. How it is done:
(§1) The bacteria reported in Table 1 were used for conventional susceptibility testing experiments. M33D and M33i/l MICs were determined in triplicate on reference and clinical strains using a microdilution assay, performed according to the guidelines of the Clinical and Laboratory Standards Institute. Briefly, strains were grown on Mueller–Hinton (MH) agar plates (Becton Dickinson, Franklin Lakes, NJ, USA) and a single colony for each strain was picked using a sterile cotton swab, streaked in sterile cation-supplemented MH, and measured with a densitometer (Densichek, bioMèrieux, Marcy l’Etoile, France) up to 0.15 optical density. Wells of a microtiter plate containing 50 μL serial-doubling dilutions of the peptides were inoculated with an equal volume of bacterial suspension. The final bacterial inoculum was 5 × 10^4 CFU/well in a volume of 100 μL. […] Assays were performed in triplicate, and the median MIC values were recorded.
In general terms: Dilution methods test growth across graded concentrations, often in twofold steps.

Data set [2] relates to E. coli W03BG0025. Type of data set: cell-based, Escherichia coli. As to the method: as §1
Data set [3] concerns E. coli ATCC 25922. The data set is classed as cell-based, Escherichia coli. How it is done: as §1
Data set [4] deals with E. coli LC711. The data set is classed as cell-based, Escherichia coli. As to conditions: ColR (colistin-resistant) clinical isolate; CLSI microdilution, 5 × 10^4 CFU/well, 35° 18–20 h, median of triplicate. As to the method:
as §1

For data set [5], the system named is K. pneumoniae ATCC 13833. The data set is classed as cell-based, Klebsiella pneumoniae. How it is done:
as §1

For data set [6], the system named is K. pneumoniae 7086042. The data set is classed as cell-based, Klebsiella pneumoniae. As to the method:
as §1

Data set [7] relates to P. aeruginosa ATCC 27853. The data set is classed as cell-based, Pseudomonas aeruginosa. As to the method: as §1
Data set [8] has as its system P. aeruginosa AV 65. The data set is classed as cell-based, Pseudomonas aeruginosa. How it is done: as §1
The subject of data set [9] is E. coli TG1. The data set is classed as cell-based, Escherichia coli. The note with it: 24 h preformed biofilm challenged with peptide 14 h at 37 °C, crystal violet OD595, triplicate wells. As to the method:
(§2) For MBIC, the bacterial suspension (200 μL) of E. faecalis PE, E. faecalis 51299, E. coli TG1, or E. coli LC711, obtained as above, was added to wells in triplicate, in a 96-well U-bottom plate and incubated at 37 °C for 24h. The supernatant was removed, and 200 μL M33D and M33i/l diluted in TSB was added to the wells in twofold serial dilutions of each peptide.
(§3) Untreated bacteria were used as positive control. After 14 h of static incubation at 37 °C, wells were washed thrice with PBS and fixed with PFA 4% in PBS (200 μL) for 30 min at room temperature. Wells were then washed three times, and crystal violet (1% in water) was added and incubated for 30 min in the dark. Wells were again washed, and the color dissolved with ethanol/acetone 80:20. Color was read at 595 nm. The MBIC is the lowest concentration of an antibiotic that results in an OD595 nm difference of ≤10% of the mean of two control well readings.
(§4) Biofilm inhibition activity was evaluated on the basis of two parameters: the biofilm prevention concentration (BPC) and the minimal biofilm inhibition concentration (MBIC). The BPC is the lowest concentration of peptide that results in 10% lower biofilm formation compared to untreated controls. The biofilm was measured after removing planktonic cells by washing the wells, previously incubated for 24 h with the bacteria and the peptide. MBIC is the lowest concentration of peptide that results in a 10% reduction in preformed biofilm compared to untreated controls. A 24 h biofilm was challenged with serial dilutions of the peptides for 14 h. Then after removal of planktonic cells, the residual biofilm was measured. Crystal violet absorbance at […] was used to measure biofilm in the case of both parameters.

Data set [10] relates to E. coli LC711. The data set is classed as cell-based, Escherichia coli. As to conditions: 24 h preformed biofilm challenged with peptide 14 h at 37 °C, crystal violet OD595, triplicate wells. How it is done:
as §2, §3, §4

The subject of data set [11] is S. epidermidis ATCC 14990. Type of data set: cell-based. How it is done:
as §1

Data set [12] deals with S. epidermidis 6154. The data set is classed as cell-based. How it is done: as §1
Data set [13] relates to E. faecalis PE. Type of data set: cell-based, Enterococcus faecalis. As to conditions: 24 h preformed biofilm challenged with peptide 14 h at 37 °C, crystal violet OD595, triplicate wells. How it is done: as §2, §3, §4
For data set [14], the system named is E. faecalis ATCC 51299. The data set is classed as cell-based, Enterococcus faecalis. The note with it: 24 h preformed biofilm challenged with peptide 14 h at 37 °C, crystal violet OD595, triplicate wells. As to the method: as §2, §3, §4
Data set [15] has as its system S. aureus USA 300. Type of data set: cell-based, Staphylococcus aureus. How it is done: as §1
Data set [16] concerns S. aureus 3851. The data set is classed as cell-based, Staphylococcus aureus. As to the method: as §1
Data set [17] deals with E. faecalis PE. The data set is classed as cell-based, Enterococcus faecalis. How it is done:
as §1

For data set [18], the system named is E. faecalis ATCC 51299. Type of data set: cell-based, Enterococcus faecalis. How it is done:
as §1

A short description of data set [19]: in vitro. The data set is classed as in vitro ADME. The note with it: human, serum. As to the method: A pool of sera from healthy volunteers (n = 5) was diluted to 50% with RPMI 1640 medium. A 5 μg/mL solution of the peptides in 50% serum was incubated at 37 °C for different time intervals (2, 4, 24, 48, and 72 h). At the established time, trichloroacetic acid was added at a 7.5% concentration, and the sample was centrifuged at 12,000–13,000× g for 15 min. Part of the supernatant was used for the MALDI-TOF analysis (2 μL) and part (250 μL) for the HPLC analysis, after being diluted with 1% TFA (750 μL). Time-zero HPLC and MS-spectroscopy spectra were obtained immediately after mixing the peptide with 50% serum. The presence of the intact peptide was determined in HPLC by spotting and integrating the peptide peak at the correct retention time. The identity of the peptide peak was further also confirmed by MALDI mass spectrometry.

Data set [20] can be described thus: Eukaryotic cell viability assay (MTT). The note with it: mouse. The data set is classed as cell-based, murine. How it is done: RAW 264.7 cells, 5 × 10^3 per well, were seeded in 96-well plates and incubated for 24 h at 37 °C in a 5% CO2 atmosphere. A 100 μL volume of peptides at different concentrations in fresh medium was then added to the wells and kept for 24 h. Then 20 μL MTT (5 mg/mL) was added to each well, and the plate was incubated at 37 °C for 3 h. Finally, 120 μL HCl 4 mM in isopropanol was added to each well to dissolve the formazan crystals. Optical density was measured with a microplate reader (Bio-Rad, Hercules, CA, USA) at 570 nm. Cell viability was calculated by comparing the values of treated with those of untreated cells. Curves and EC50 were calculated using GraphPad Prism 5.03 software.

The source of these data is paper PMC9611259, “Antimicrobial Peptides Active in In Vitro Models of Endodontic Bacterial Infections Modulate Inflammation in Human Cardiac Fibroblasts” (Pharmaceutics, 2022).

In brackets after ≈: the same amount, converted by molar mass. Where a SMILES comes first, the peptide text is derived from it. Bridges are numbered along the chain shown (N, C = ends). Roman numbers before positions name the chains, in order. [ ]: non-standard residue; d: D form. βAla = NCCC(=O)O

One may read the share remaining as what is left of the initial amount, in per cent. Lower therefore signals more turnover. In general, EC50 refers to the concentration needed to bring the measured effect to its halfway point. Low readings indicate an effect from little substance, high ones a need for much substance. As to `CC(C)C[C@@H](NC(=O)[C@@H](CCCCN)NC(=O)[C@H](N)CCCCN)C(=O)N[C@H](CCCNC(=N)N)C(=O)N[C@@H](C(=O)N[C@H](CCCNC(=N)N)C(=O)N[C@H](CC(C)C)C(=O)N[C@H](CO)C(=O)N[C@H](C)C(=O)NCCCC[C@H](NC(=O)[C@@H](C)NC(=O)[C@@H](CO)NC(=O)[C@@H](CC(C)C)NC(=O)[C@@H](CCCNC(=N)N)NC(=O)[C@H](NC(=O)[C@@H](CCCNC(=N)N)NC(=O)[C@@H](CC(C)C)NC(=O)[C@@H](CCCCN)NC(=O)[C@H](N)CCCCN)C(C)C)C(=O)NCCCC[C@H](NC(=O)[C@H](CCCCNC(=O)[C@@H](C)NC(=O)[C@@H](CO)NC(=O)[C@@H](CC(C)C)NC(=O)[C@@H](CCCNC(=N)N)NC(=O)[C@H](NC(=O)[C@@H](CCCNC(=N)N)NC(=O)[C@@H](CC(C)C)NC(=O)[C@@H](CCCCN)NC(=O)[C@H](N)CCCCN)C(C)C)NC(=O)[C@@H](C)NC(=O)[C@@H](CO)NC(=O)[C@@H](CC(C)C)NC(=O)[C@@H](CCCNC(=N)N)NC(=O)[C@H](NC(=O)[C@@H](CCCNC(=N)N)NC(=O)[C@@H](CC(C)C)NC(=O)[C@@H](CCCCN)NC(=O)[C@H](N)CCCCN)C(C)C)C(=O)NCCC(=O)O)C(C)C` [M33i/l] (I: H-[dK][dK][dL][dR][dV][dR][dL][dS][dA]KK[βAla]-OH / II: H-[dK][dK][dL][dR][dV][dR][dL][dS][dA]K / III: H-[dK][dK][dL][dR][dV][dR][dL][dS][dA] / IV: H-[dK][dK][dL][dR][dV][dR][dL][dS][dA]; amide I:10-IV:C, I:11-II:C, II:10-III:C), the MIC is 1.5 µM (≈ 7.02 µg/mL) in data set [1]; 3 (16) μM in [2]; 3 (16) μM in [3]; 0.3 (1.6) μM in [4]; 3 (16) μM in [5]; 6 (32) μM in data set [6]. Besides, the MIC is listed as 0.8 (4) μM in [7]; 1.5 (8) μM in data set [8]; 0.8 (4) μM in data set [11]; 0.8 (4) μM in [12]; 1.5 (8) μM in [15]; 0.8 (4) μM in [16]. The MIC in data set [17] and in data set [18] was 1.5 (8) μM in each case. Further, the MBIC in data set [9] worked out at 3 µM; in data set [10], 3 µM; in [13], 6 µM; in data set [14], 6 µM. The compound further gave a share remaining at 72 h, 5 μg/mL in data set [19] of 25%. The compound further registered an EC50 at 24 h in data set [20] of 18 µM.
